Measurements as given in paper PMC6164663, “Flavonoids as Putative Epi-Modulators: Insight into Their Binding Mode with BRD4 Bromodomains Using Molecular Docking and Dynamics” (Biomolecules, 2018).

Biological target: T1, BRD4 (Homo sapiens, UniProt O60885)
T1 construct: tandem (BD1 + BD2)
Assay: AlphaScreen binding assay with H4 peptide ([…]) K5/[…] Ac, duplicate dose-response (IC50 […])
Conditions: read-out: DATA 2

SMILES: O=c1cc(-c2ccc(O)c(-c3c(O)cc(O)c4c(=O)cc(-c5ccc(O)cc5)oc34)c2)oc2cc(O)cc(O)c12 [amentoflavone]
- IC50: 30.4 µM
